The term AC50 denotes the concentration at which the activity in the assay is half-maximal.

“And” between values parts separate entries of the source, which are not always exact repeats. Equal values may be shown once. Records with an inconclusive call do not appear. The source made the active and inactive calls. How the calls were made is not given here.

Data on 77 compounds can be found in PubChem BioAssay AID1259420 (Broad Institute, 2018).

This assay deals with Toxoplasma gondii growth in host cells, no IFN-gamma. Put plainly: T. gondii intracellular growth, IFN-gamma absent, dose response, cell-based (AID 1259420).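 Further: host cells were HeLa; final incubation lasted 72 hours.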

For the compound `COCC1CN(C(=O)Cc2ccsc2)Cc2nccn2C1` (configuration not stated), the half-maximal activity concentration (AC50) was 28.3 µM.

Consider `COc1ccc(-c2nc(Nc3ccc(CN4CCC(C)CC4)cc3)c3ccccc3n2)cc1`, for which the AC50 was 12.6 µM.

Regarding `N#Cc1cccc(-c2ccc(C3[C@@H]4CN(Cc5ccccc5)C[C@H]3N4)cc2)c1` (some centres not stated), the AC50 was 13.1 µM.

Consider `O=C(Nc1cccc(F)c1)C1CC12CCN(S(=O)(=O)c1ccccc1)C2` (configuration not stated), for which the AC50 is 35.5 µM.

`O=C(Nc1ccc(F)cc1)N1CC(=O)N2[C@H](C1)[C@@H](c1ccc(-c3cccc(F)c3)cc1)[C@@H]2CO`: the half-maximal activity concentration (AC50) is 29.4 µM and 15.6 µM.

Take `Cc1ccccc1S(=O)(=O)N1C[C@@H]2N[C@H](C1)C2c1ccc(-c2cccc(C#N)c2)cc1` (some centres not stated): the half-maximal activity concentration (AC50) was 13.3 µM and 14.8 µM and 31.3 µM.

For `Cc1cnn(C(C)C(=O)N2CCc3[nH]nc(-c4ccc(F)c(F)c4)c3C2)c1` (configuration not stated), the AC50 is > 39 µM (inactive).

As for `c1cnc(N2CCC(Oc3cnccn3)CC2)nc1`, the AC50 was 15.6 µM.

Take `COc1ccc(NC(=O)N2CCCCN3[C@H](CO)[C@@H](c4ccc(-c5ccccc5F)cc4)[C@H]3C2)cc1`: the AC50 is 19.7 µM.

`COc1cccc(S(=O)(=O)N2CCCCN3[C@H](CO)[C@H](c4ccc(C#CC5CC5)cc4)[C@H]3C2)c1`: the AC50 is 16.8 µM and 17 µM.

Consider `COc1ccc(S(=O)(=O)N(C)C[C@H]2Oc3c(NC(=O)c4nc5ccccc5s4)cccc3C(=O)N([C@@H](C)CO)C[C@@H]2C)cc1`, for which the concentration at half-maximal activity (AC50) is 11.3 µM and 1.88 µM.

Regarding `CN1c2ccc(-c3ccccc3)cc2[C@@H]2[C@@H](CCN2C(=O)CC2CC2)[C@@H]1CO`, the half-maximal activity concentration (AC50) was 25.3 µM.

Consider `O=C(NC1CCCC1)N1CC[C@H]2CN(Cc3ccc(Cl)cc3)S(=O)(=O)[C@@H]2CC1`, for which the AC50 was 28.5 µM.

Consider `N#Cc1ccc(-c2ccc(C3[C@@H]4CN(C(=O)C5CCCCC5)C[C@H]3N4)cc2)cc1` (some centres not stated), for which the AC50 was 16.7 µM.

In the case of `N#Cc1ccc(-c2ccc3c(c2)[C@H]2[C@H](CCN2C(=O)C2CCCCC2)[C@H](CO)N3)cc1`, the concentration at half-maximal activity (AC50) was 16.9 µM.

For the compound `COc1ccc(CN2CCO[C@H]3[C@H]2CC[C@H]3OCCCn2cccn2)cc1`, the AC50 is > 39 µM (inactive).

Consider `CS(=O)(=O)NCc1cnc2n1CCN(Cc1cccs1)CC2`, for which the half-maximal activity concentration (AC50) is 25.6 µM.

In the case of `O=C(Nc1cccnc1)c1cc(-c2cnc(-c3ccccc3)nc2)cn1CC1CC1`, the AC50 was 27.9 µM and 19.8 µM.

Turning to `CC[C@]1(O)C[C@@H]2CN(CCc3c([nH]c4ccccc34)[C@@](C(=O)OC)(c3cc4c(cc3OC)N(C)[C@H]3[C@@](O)(C(=O)OC)[C@H](OC(C)=O)[C@]5(CC)C=CCN6CC[C@]43[C@@H]65)C2)C1`, the half-maximal activity concentration (AC50) is less than 0.16 µM.

In the case of `CCc1cnc(N2[C@H](C#N)[C@@H](c3ccc(-c4cccc(F)c4)cc3)[C@@H]2CO)s1`, the AC50 is > 39 µM (inactive).

As to `CCCCCCCCCCCCCCCC[n+]1ccccc1`, the concentration at half-maximal activity (AC50) was 6.86 µM.

As for `CCc1cc(C(=O)Nc2ccc(C)cc2-c2cc(C)[nH]n2)c2c(C)noc2n1`, the half-maximal activity concentration (AC50) is 18.2 µM.

Consider `COc1cccc(-c2nc3c(s2)CN(S(=O)(=O)c2ccccc2C)CC3)c1`, for which the AC50 is 34.7 µM.

With `CO[C@H]1CCN(Cc2ccoc2)[C@H]2CN(Cc3ccncc3)C[C@@H]12`, the AC50 is > 39 µM (inactive).

In the case of `CC(=O)N(C)C1(c2ccccc2)CCN(CCC[C@]2(c3ccc(Cl)c(Cl)c3)CCCN(C(=O)c3ccccc3)C2)CC1`, the AC50 was 16.7 µM.

Take `COC(=O)C1CC23C=CNC4CCC5(c6ccccc6NC15C2C)C43` (configuration not stated): the AC50 was 19.4 µM.

Regarding `Fc1cccc(CN2C[C@@H]3N[C@H](C2)C3c2ccc(/C=C/c3ccccc3)cc2)c1` (some centres not stated), the half-maximal activity concentration (AC50) was 17.6 µM.

Consider `CCc1c2c(nc3ccc(OC(=O)N4CCC(N5CCCCC5)CC4)cc13)-c1cc3c(c(=O)n1C2)COC(=O)[C@]3(O)CC`, for which the concentration at half-maximal activity (AC50) was 24.7 µM.

On to `CN1C(=O)c2cc(NC(=O)c3cccc(F)c3)ccc2OC[C@@H]2O[C@H](CC(=O)NCC3CCCCC3)CC[C@@H]21`, for which the AC50 was > 39 µM (inactive).

Take `CCN(CC)C(=O)C1Cn2ccnc2C2(CCN(CC(C)C)CC2)O1` (configuration not stated): the AC50 was > 39 µM (inactive).

As to `OC(c1cc(C(F)(F)F)nc2c(C(F)(F)F)cccc12)C1CCCCN1` (configuration not stated), the AC50 was 20.4 µM.

As for `Oc1[nH]c2ccccc2c1N=Nc1nc(Nc2ccccc2)nc(N2CCOCC2)n1`, the AC50 is 16.9 µM.

In the case of `COc1ccccc1CN1CC[C@@H]2[C@H](CO)Nc3ccc(-c4cccc(C(=O)N(C)C)c4)cc3[C@@H]21`, the half-maximal activity concentration (AC50) is 13.6 µM.

Regarding `COCC(=O)N1[C@@H](C#N)[C@H](c2ccc(C#CCC3CCCC3)cc2)[C@@H]1CO`, the AC50 was 18.7 µM.

Turning to `C[C@H](CO)N1C[C@H](C)[C@H](CN(C)C(=O)c2cc(Cl)cc(Cl)c2)OCc2ccccc2-c2c(n(C)c3ccccc23)C1=O`, the AC50 is 15.3 µM.

Regarding `O=C(C[C@@H]1CC[C@H]2[C@@H](COC[C@@H](O)CN2Cc2cc(F)ccc2F)O1)NCc1ccc(Oc2ccccc2)cc1`, the AC50 was 16.9 µM.

On to `CC(C)(Cc1ccc2ccccc2c1)NC[C@@H](O)COc1cccc(Cl)c1C#N`, for which the half-maximal activity concentration (AC50) was 12.3 µM.

For `CCOCCCNC(=O)c1ccc2ccc(N3CCN(CC4CC4)CC3)n2c1`, the AC50 is > 39 µM (inactive).

On to `CC(C)C#Cc1ccc([C@@H]2[C@H]3CN(C(=O)NC4CCCC4)CC(=O)N3[C@H]2CO)cc1`, for which the AC50 was > 39 µM (inactive).

`O=C(CC1CCC2(CC1)CCN(c1ncc(F)cn1)CC2)N1CC=CC1`: the AC50 is 21.7 µM.

With `N#Cc1cccc(-c2ccc(C3[C@@H]4CN(C(=O)c5ccc6c(c5)OCO6)C[C@H]3N4)cc2)c1` (some centres not stated), the AC50 is > 39 µM (inactive).

With `Cc1ccccc1-c1ccc2c(-c3ncc(C(=O)NCCN(C)C)s3)noc2c1`, the AC50 was 24.7 µM.

With `Cc1cc(C(=O)Nc2ccc3c(c2)C(=O)N(C)[C@H]2CC[C@H](CC(=O)NCc4ccc(-c5ccccc5)cc4)O[C@H]2CO3)no1`, the AC50 is 14 µM.

As to `COc1ccc(Cc2cnc(N)nc2N)cc1OC`, the concentration at half-maximal activity (AC50) is 25.8 µM.

For `C[C@H]1CN([C@@H](C)CO)C(=O)c2cccc(NS(=O)(=O)c3ccc(F)cc3)c2O[C@H]1CN(C)Cc1ccc(Cl)c(Cl)c1`, the half-maximal activity concentration (AC50) is 17.6 µM.

As for `CC(C)CNC(=O)c1nc2c(s1)CCN(C(=O)NCc1ccccc1)CC2`, the concentration at half-maximal activity (AC50) was 18.3 µM.

Turning to `O=C(Nc1ccc(Cl)cc1)N1[C@@H]2CNC[C@H]1C2c1ccc(-c2ccccc2)cc1` (some centres not stated), the AC50 is 6.4 µM.

Consider `COc1ccc(C#Cc2ccc([C@@H]3[C@H]4CN(C(=O)NC(C)C)CC(=O)N4[C@H]3CO)cc2)cc1`, for which the AC50 was > 39 µM (inactive).

`Cc1cc(C)cc(S(=O)(=O)N2CCC3(CC2)NCCN=C3NCc2ccc(C(F)(F)F)cc2)c1`: the AC50 was 18.7 µM.

Take `Cc1ccc(N(Cc2nc(-c3cccc(Cl)c3)oc2C)S(=O)(=O)c2cccs2)cc1`: the AC50 is 8.34 µM.

Consider `O=C(C[C@H]1CC[C@H]2[C@@H](COC[C@H](O)CN2Cc2ccc(Oc3ccccc3)cc2)O1)N1CCN(c2ccccc2)CC1`, for which the AC50 is 27.6 µM.

As to `COc1cccc(C#Cc2ccc([C@@H]3[C@H](C#N)N(C(=O)c4ccccn4)[C@H]3CO)cc2)c1`, the AC50 is 19.9 µM.

With `COc1ccccc1NC(=O)N1C[C@H](O)COC[C@@H]2O[C@H](CC(=O)N3CCC(Cc4ccccc4)CC3)CC[C@H]21`, the AC50 is 37.7 µM.

With `CN1[C@@H]2c3ccc(/C=C/c4ccccc4)c(=O)n3C[C@H]1[C@H](CO)[C@H]2C(=O)NC1Cc2ccccc2C1`, the AC50 is > 39 µM (inactive).

For the compound `N#Cc1ccc(-c2ccc3c(c2)[C@@H]2[C@@H](CCN2C(=O)C2CCCCC2)[C@H](CO)N3)cc1`, the AC50 is 18 µM.

As to `CN(C)C(=O)c1cccc(-c2ccc3c(c2)[C@H]2[C@H](CCN2C(=O)Cc2ccccc2)[C@H](CO)N3)c1`, the half-maximal activity concentration (AC50) was 16.6 µM.

For the compound `COc1cccc(S(=O)(=O)N2CCCCN3[C@H](CO)[C@@H](c4ccc(C#CCC(C)C)cc4)[C@@H]3C2)c1`, the AC50 is 19 µM.

Take `COc1cccc(CNC(=O)c2cc3c(s2)CCN3C(=O)c2ccc(F)cc2)c1`: the half-maximal activity concentration (AC50) was 2.74 µM.

On to `C/C=C/c1ccc([C@H]2[C@@H](C#N)N(C(=O)NC3CCCCC3)[C@H]2CO)cc1`, for which the concentration at half-maximal activity (AC50) is 20.9 µM.

For `CCCCc1ccc(Nc2ncnc3c2cnn3-c2ccc(C)cc2C)cc1`, the AC50 was 11.6 µM.

With `CN1c2ccc(-c3ccccc3)cc2[C@H]2[C@H](CCN2C(=O)CC2CC2)[C@@H]1CO`, the AC50 is 25.4 µM.

For `COc1cccc(-c2ccc3c(c2)[C@@H]2[C@@H](CCN2S(=O)(=O)c2ccccc2F)[C@@H](CO)N3)c1`, the concentration at half-maximal activity (AC50) is 16 µM.

For `O=C(c1cccn2c(-c3ccc(F)cc3)nnc12)N1CCC(O)(c2ccc(Cl)cc2)CC1`, the AC50 is > 39 µM (inactive).

For `CC(C)C#Cc1ccc([C@@H]2[C@@H](CO)N(C(=O)c3cccc(F)c3)[C@H]2C#N)cc1`, the AC50 is > 20 µM (inactive).

Consider `CCc1cnc(N2[C@H](C#N)[C@H](c3ccc(-c4cccc(F)c4)cc3)[C@H]2CO)s1`, for which the AC50 is 22.6 µM.

As for `COCCN1CCN(S(=O)(=O)c2ccccc2)Cc2cccnc21`, the AC50 is 31.1 µM.

As for `O=C(C[C@@H]1CC[C@@H]2[C@H](COC[C@@H](O)CN2S(=O)(=O)c2ccccc2)O1)NCC1CCCCC1`, the half-maximal activity concentration (AC50) was 33.4 µM.

Take `COc1ccc(-c2ccc([C@@H]3[C@@H](CO)N4C(=O)CN(Cc5ccccc5)C[C@H]34)cc2)cc1`: the AC50 was > 39 µM (inactive).

Take `CC(C)N1CCN(CC#N)C2(CCN(C(=O)c3ccc[nH]3)C2)C1=O` (configuration not stated): the half-maximal activity concentration (AC50) was 37.9 µM.

Take `CC(C)N1CCC2(CC1)CC(COCC1CC1)N(c1ncccn1)C2` (configuration not stated): the AC50 is 35.9 µM.

Turning to `CC(C)CC#Cc1ccc([C@@H]2[C@@H](CO)N3CCCCN(C(=O)Nc4ccccc4)C[C@@H]23)cc1`, the AC50 was 23.7 µM.

As for `O=C(NC1CCCC1)[C@H]1[C@H](CO)[C@H]2Cn3c(ccc(C4=CCCCC4)c3=O)[C@@H]1N2CC1CC1`, the AC50 is > 39 µM (inactive).

Turning to `CO[C@@H]1[C@@H](OC(N)=O)[C@@H](O)[C@H](Oc2ccc3c(O)c(NC(=O)c4ccc(O)c(CC=C(C)C)c4)c(=O)oc3c2C)OC1(C)C`, the AC50 was 18 µM.

Turning to `O=C(Nc1ccc2c(c1)OCO2)N1C[C@@H]2N[C@H](C1)C2c1ccc(C=Cc2ccccc2)cc1` (some centres not stated), the AC50 was 11.6 µM and 8.75 µM.

As for `CCCNC(=O)N1CC(=O)N2[C@@H](CO)[C@@H](c3ccc(C#Cc4cccc(OC)c4)cc3)[C@@H]2C1`, the AC50 was 31.2 µM.

In the case of `CCc1ccccc1S(=O)(=O)N1CCc2nc(-c3ccccc3)sc2C1`, the half-maximal activity concentration (AC50) is 3.94 µM and 3.08 µM.

On to `O=C(Cc1cccnc1)N1CC(=O)N2[C@H](CO)[C@@H](c3ccc(C#CC4CCCCC4)cc3)[C@H]2C1`, for which the AC50 was > 20 µM (inactive).
